Measured values taken from patent US8809356B2, “Inhibitors of NEDD8-activating enzyme” (Millennium Pharmaceuticals, Inc., priority 2011, dated 2014).

Key:
[1] = Pharmacokinetic parameters (plasma AUC) after single subcutaneous administration in HCT116 xenograft mice; type: in vivo; conditions: I-216 at 10 mg/kg, female Ncr nude mice bearing HCT116 tumor xenografts
[2] = target: T1, NAE (Homo sapiens, UniProt Q8TBC4); experiment: In vivo Tumor Pharmacodynamic Model (neddylated cullins in HCT116 tumor xenografts); set-up: species or system female Ncr nude mice; conditions: expected from the pharmacodynamic and pharmacokinetic figures (FIGS. 1-3)
T1 construct: endogenous in cells; host or cells: HCT116 (ATCC CCL-247) subcutaneous tumour xenografts in female Ncr nude mice
T1 sequence (Q8TBC4 1-463): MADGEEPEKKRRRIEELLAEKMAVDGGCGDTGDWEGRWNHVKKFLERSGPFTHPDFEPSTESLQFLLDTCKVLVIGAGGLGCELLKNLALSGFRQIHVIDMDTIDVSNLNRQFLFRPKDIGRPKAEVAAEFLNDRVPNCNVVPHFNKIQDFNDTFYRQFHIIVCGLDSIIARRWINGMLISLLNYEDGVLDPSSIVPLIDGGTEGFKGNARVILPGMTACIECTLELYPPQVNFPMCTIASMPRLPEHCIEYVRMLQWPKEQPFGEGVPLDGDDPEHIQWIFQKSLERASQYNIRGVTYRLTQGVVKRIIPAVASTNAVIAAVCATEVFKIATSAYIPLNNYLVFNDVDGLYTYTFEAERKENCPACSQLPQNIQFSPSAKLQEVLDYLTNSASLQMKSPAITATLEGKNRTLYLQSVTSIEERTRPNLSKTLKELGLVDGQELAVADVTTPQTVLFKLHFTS
T1 sequence (Q13564 1-534 partner): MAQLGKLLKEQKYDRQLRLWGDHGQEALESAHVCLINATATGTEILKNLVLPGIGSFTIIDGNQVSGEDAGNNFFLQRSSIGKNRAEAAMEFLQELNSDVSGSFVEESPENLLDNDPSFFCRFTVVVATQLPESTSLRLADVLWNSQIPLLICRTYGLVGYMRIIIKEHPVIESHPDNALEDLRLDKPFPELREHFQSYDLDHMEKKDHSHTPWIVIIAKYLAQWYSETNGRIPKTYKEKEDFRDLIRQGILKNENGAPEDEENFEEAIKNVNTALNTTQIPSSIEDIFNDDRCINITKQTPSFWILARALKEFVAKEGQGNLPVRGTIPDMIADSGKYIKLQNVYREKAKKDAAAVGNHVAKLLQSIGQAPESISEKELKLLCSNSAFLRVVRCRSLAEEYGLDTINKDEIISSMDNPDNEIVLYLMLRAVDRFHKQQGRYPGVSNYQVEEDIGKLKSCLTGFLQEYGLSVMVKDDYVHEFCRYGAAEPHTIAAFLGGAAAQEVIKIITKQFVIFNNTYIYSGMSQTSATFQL
Description: HCT116 tumor cells (2×10^6) (ATCC #CCL-247) in 100 μL phosphate buffered saline were aseptically injected into the subcutaneous space in the right dorsal flank of female Ncr nude mice (age 5-8 weeks, Charles River) using a 26-gauge needle. Beginning on day 7 after inoculation, tumors were measured twice weekly using a vernier caliper. Tumor volumes were calculated using standard procedures (0.5×(length×width^2)). When the tumors reached a volume of approximately 3-700 mm^3 mice were randomized into groups and injected subcutaneously with compound inhibitor (200 μL) at various doses. Tumors were harvested and crushed in Covaris bags and then transferred to glass tubes on dry ice for sonication in the Covaris E200. […] Supernatants were transferred to new tubes and protein concentrations were determined using the Pierce bicinchoninic acid (BCA) reagents and protein standards. […]
For quantitative analysis of neddylated cullins the procedure was as follows: 20 μg of tumor lysate with lithium dodecyl sulfate (LDS) loading buffer and sample reducing agent (Invitrogen NP0007 and NP0004) was loaded onto 4-12% bis-tris gels, […], 10 well gels (Invitrogen NP0315Box). […] Quantitation of signals on Western blots was performed with the Odyssey software.

potency as inhibitor of NAE relative to I-115 [2]: 2- to 3 fold
SMILES: CO[C@H]1Cc2cc(Cl)ccc2[C@H]1Nc1cc(O[C@@H]2C[C@@H](COS(N)(=O)=O)[C@@H](O)C2)ncn1 [I-216, {(1S,2S,4R)-4-[(6-{[(1R,2S)-5-chloro-2-methoxy-2,3-dihydro-1H-inden-1-yl]amino}pyrimidin-4-yl)oxy]-2-hydroxycyclopentyl}methyl sulfamate]
plasma AUC compared with I-115 at 30 mg/kg [1]: comparable to that observed for I-115 administered at 30 mg/kg
plasma AUC compared with I-216 at 30 mg/kg [1]: approximately half the AUC observed for I-216 administered at 30 mg/kg
